Reference: patent US8932597B2 (priority 2008, dated 2015)

How the values were obtained:
HuM2e antibody 23K12 = format: binding, human
[1] = system: anti-M2 human monoclonal antibody Z3G1; format: binding

640 (SLLTEVETPIRNKWGCRCNDSSD; epitope peptide) [compound 640]
Signal (peptides that bind to 23K21 and 8I10) (HuM2e antibody 23K12): 765 | Signal (peptides that show specific binding to Z3G1) [1]: 2402

431 (SLLTEVETPIRNEWGCRCNDSTD; epitope peptide) [compound 431]
Signal (peptides that bind to 23K21 and 8I10) (HuM2e antibody 23K12): 701 | Signal (peptides that bind to Z3G1) [1]: 2205

379 (SLCTEVGCSCLCEV; epitope peptide) [compound 379]
Signal (peptides that bind to 23K21 and 8I10) (HuM2e antibody 23K12): 1421 | Signal (peptides that show specific binding to Z3G1) [1]: 1500

698 (SLLTEVETPIRDEWGCRCNDSSD; epitope peptide) [compound 698]
Signal (peptides that bind to 23K21 and 8I10) (HuM2e antibody 23K12): 716 | Signal (peptides that show specific binding to Z3G1) [1]: 2187

422 (SLLTEVETPIRNEWGCRCNDSFD; epitope peptide) [compound 422]
Signal (peptides that bind to 23K21 and 8I10) (HuM2e antibody 23K12): 947 | Signal (peptides that bind to Z3G1) [1]: 2492

383 (CSLLTEVGCSLLTEC; epitope peptide) [compound 383]
Signal (peptides that bind to 23K21 and 8I10) (HuM2e antibody 23K12): 1380 | Signal (peptides that bind to Z3G1) [1]: 2486

608 (SLLTEIETPIRNEWGCRCNDSSD; epitope peptide) [compound 608]
Signal (peptides that bind to 23K21 and 8I10) (HuM2e antibody 23K12): 816 | Signal (peptides that show specific binding to Z3G1) [1]: 2016

401 (SLLTEVETPIRNEWGCRCNWSSD; epitope peptide) [compound 401]
Signal (peptides that bind to 23K21 and 8I10) (HuM2e antibody 23K12): 999 | Signal (peptides that bind to Z3G1) [1]: 2556

584 (SLLTEVETPIRNEWGCRRNDSSD; epitope peptide) [compound 584]
Signal (peptides that bind to 23K21 and 8I10) (HuM2e antibody 23K12): 855 | Signal (peptides that show specific binding to Z3G1) [1]: 2383

716 (SLLTEVETPIRNEFGCRCNDSSD; epitope peptide) [compound 716]
Signal (peptides that bind to 23K21 and 8I10) (HuM2e antibody 23K12): 702 | Signal (peptides that show specific binding to Z3G1) [1]: 2444

623 (SLLTEVETCIRNEWGCRCNDSSD; epitope peptide) [compound 623]
Signal (peptides that bind to 23K21 and 8I10) (HuM2e antibody 23K12): 800 | Signal (peptides that show specific binding to Z3G1) [1]: 1992

676 (SLLTEVETPIENEWGCRCNDSSD; epitope peptide) [compound 676]
Signal (peptides that bind to 23K21 and 8I10) (HuM2e antibody 23K12): 731 | Signal (peptides that show specific binding to Z3G1) [1]: 2252

493 (SLLTEVETMIRNEWGCRCNDSSD; epitope peptide) [compound 493]
Signal (peptides that bind to 23K21 and 8I10) (HuM2e antibody 23K12): 1104 | Signal (peptides that show specific binding to Z3G1) [1]: 2320

688 (SLLTEVETPIRNETGCRCNDSSD; epitope peptide) [compound 688]
Signal (peptides that bind to 23K21 and 8I10) (HuM2e antibody 23K12): 724 | Signal (peptides that show specific binding to Z3G1) [1]: 2401

709 (SLLTEVLTPIRNEWGCRCNDSSD; epitope peptide) [compound 709]
Signal (peptides that bind to 23K21 and 8I10) (HuM2e antibody 23K12): 707 | Signal (peptides that show specific binding to Z3G1) [1]: 1743

613 (SLLTEVETPIRNEWGCRCNHSSD; epitope peptide) [compound 613]
Signal (peptides that bind to 23K21 and 8I10) (HuM2e antibody 23K12): 812 | Signal (peptides that bind to Z3G1) [1]: 2439

665 (SLLTEVETPFRNEWGCRCNDSSD; epitope peptide) [compound 665]
Signal (peptides that bind to 23K21 and 8I10) (HuM2e antibody 23K12): 745 | Signal (peptides that show specific binding to Z3G1) [1]: 2229

621 (SLLTEVEFPIRNEWGCRCNDSSD; epitope peptide) [compound 621]
Signal (peptides that bind to 23K21 and 8I10) (HuM2e antibody 23K12): 805 | Signal (peptides that show specific binding to Z3G1) [1]: 2297

373 (CSLLTECGMSLLTEV; epitope peptide) [compound 373]
Signal (peptides that bind to 23K21 and 8I10) (HuM2e antibody 23K12): 1458 | Signal (peptides that bind to Z3G1) [1]: 1235

413 (SLLTEVETPIRNEWGCRCNDPSD; epitope peptide) [compound 413]
Signal (peptides that bind to 23K21 and 8I10) (HuM2e antibody 23K12): 797 | Signal (peptides that bind to Z3G1) [1]: 2450

416 (SLLTEVETPIRNEWGCRCNDTSD; epitope peptide) [compound 416]
Signal (peptides that bind to 23K21 and 8I10) (HuM2e antibody 23K12): 794 | Signal (peptides that bind to Z3G1) [1]: 2394

496 (SCLTEVGSLLCEV; epitope peptide) [compound 496]
Signal (peptides that bind to 23K21 and 8I10) (HuM2e antibody 23K12): 1095 | Signal (peptides that show specific binding to Z3G1) [1]: 1896

398 (SLLTEVETPIRNEWGCRCNRSSD; epitope peptide) [compound 398]
Signal (peptides that bind to 23K21 and 8I10) (HuM2e antibody 23K12): 890 | Signal (peptides that bind to Z3G1) [1]: 2514

632 (SLLTEVETPIRNEWGCRCVDSSD; epitope peptide) [compound 632]
Signal (peptides that bind to 23K21 and 8I10) (HuM2e antibody 23K12): 775 | Signal (peptides that bind to Z3G1) [1]: 2366

636 (SLLTEVETPIRNEIGCRCNDSSD; epitope peptide) [compound 636]
Signal (peptides that bind to 23K21 and 8I10) (HuM2e antibody 23K12): 768 | Signal (peptides that show specific binding to Z3G1) [1]: 2402

596 (SLLTEVETPIRNEWFCRCNDSSD; epitope peptide) [compound 596]
Signal (peptides that bind to 23K21 and 8I10) (HuM2e antibody 23K12): 837 | Signal (peptides that show specific binding to Z3G1) [1]: 2493

309 (CSLLTEVGMSLLCEV; epitope peptide) [compound 309]
Signal (peptides that bind to 23K21 and 8I10) (HuM2e antibody 23K12): 1891 | Signal (peptides that bind to Z3G1) [1]: 2734

301 (SLLCEVGCSLLTEC; epitope sequence) [compound 301]
Signal (peptides that bind to 23K21 and 8I10) (HuM2e antibody 23K12): 1959 | Signal (peptides that show specific binding to Z3G1) [1]: 2637

617 (SLLTEVETPIRNSWGCRCNDSSD; epitope peptide) [compound 617]
Signal (peptides that bind to 23K21 and 8I10) (HuM2e antibody 23K12): 807 | Signal (peptides that show specific binding to Z3G1) [1]: 2300

491 (SLLTEVETLIRNEWGCRCNDSSD; epitope peptide) [compound 491]
Signal (peptides that bind to 23K21 and 8I10) (HuM2e antibody 23K12): 1109 | Signal (peptides that show specific binding to Z3G1) [1]: 2225

508 (MSLCTEVGCSLLTEV; epitope peptide) [compound 508]
Signal (peptides that bind to 23K21 and 8I10) (HuM2e antibody 23K12): 1049 | Signal (peptides that bind to Z3G1) [1]: 2832

638 (SLLTEVETPIRNEWGTRCNDSSD; epitope peptide) [compound 638]
Signal (peptides that bind to 23K21 and 8I10) (HuM2e antibody 23K12): 767 | Signal (peptides that show specific binding to Z3G1) [1]: 2404

357 (SLLTEVETPIPNEWGCRCNDSSD; epitope peptide) [compound 357]
Signal (peptides that bind to 23K21 and 8I10) (HuM2e antibody 23K12): 1548 | Signal (peptides that show specific binding to Z3G1) [1]: 2515

560 (SLLTEVETPIRNEWGCRCFDSSD; epitope peptide) [compound 560]
Signal (peptides that bind to 23K21 and 8I10) (HuM2e antibody 23K12): 894 | Signal (peptides that bind to Z3G1) [1]: 2538

303 (CSLLTEVGMCLLTEV; epitope sequence) [compound 303]
Signal (peptides that bind to 23K21 and 8I10) (HuM2e antibody 23K12): 1941 | Signal (peptides that bind to Z3G1) [1]: 2618

544 (SLLTEVETPIRNEWGCRCRDSSD; epitope peptide) [compound 544]
Signal (peptides that bind to 23K21 and 8I10) (HuM2e antibody 23K12): 924 | Signal (peptides that bind to Z3G1) [1]: 2447

408 (SLLTEVETPIRNEWGCRCNDISD; epitope peptide) [compound 408]
Signal (peptides that bind to 23K21 and 8I10) (HuM2e antibody 23K12): 962 | Signal (peptides that bind to Z3G1) [1]: 2527

599 (SLLTEVERPIRNEWGCRCNDSSD; epitope peptide) [compound 599]
Signal (peptides that bind to 23K21 and 8I10) (HuM2e antibody 23K12): 834 | Signal (peptides that show specific binding to Z3G1) [1]: 2131

330 (SLLTEVETPIRNEWGCRCNDYSD; epitope peptide) [compound 330]
Signal (peptides that bind to 23K21 and 8I10) (HuM2e antibody 23K12): 1694 | Signal (peptides that bind to Z3G1) [1]: 2445

675 (SLLTEVNTPIRNEWGCRCNDSSD; epitope peptide) [compound 675]
Signal (peptides that bind to 23K21 and 8I10) (HuM2e antibody 23K12): 732 | Signal (peptides that show specific binding to Z3G1) [1]: 2150

388 (CSLLTEVGCLLTEV; epitope peptide) [compound 388]
Signal (peptides that bind to 23K21 and 8I10) (HuM2e antibody 23K12): 1351 | Signal (peptides that show specific binding to Z3G1) [1]: 2427

230 (CTPIRNEWGSRSNDSSCSLLTEVETC; epitope peptide) [compound 230]
Signal (peptides that bind to 23K21 and 8I10) (HuM2e antibody 23K12): 861 | Signal (peptides that show specific binding to Z3G1) [1]: 2168

671 (SLLTEVETPIRNEPGCRCNDSSD; epitope peptide) [compound 671]
Signal (peptides that bind to 23K21 and 8I10) (HuM2e antibody 23K12): 735 | Signal (peptides that show specific binding to Z3G1) [1]: 2279

464 (SLLTEVGSLCTEV; epitope peptide) [compound 464]
Signal (peptides that bind to 23K21 and 8I10) (HuM2e antibody 23K12): 1256 | Signal (peptides that show specific binding to Z3G1) [1]: 2219

579 (SLLTEVETPIRNEWGCRWNDSSD; epitope peptide) [compound 579]
Signal (peptides that bind to 23K21 and 8I10) (HuM2e antibody 23K12): 859 | Signal (peptides that bind to Z3G1) [1]: 2364

360 (CSLLTECGCSLLTEV; epitope peptide) [compound 360]
Signal (peptides that bind to 23K21 and 8I10) (HuM2e antibody 23K12): 1534 | Signal (peptides that bind to Z3G1) [1]: 1427

684 (SLLTEVETPIRNHWGCRCNDSSD; epitope peptide) [compound 684]
Signal (peptides that bind to 23K21 and 8I10) (HuM2e antibody 23K12): 728 | Signal (peptides that show specific binding to Z3G1) [1]: 2377

407 (SLLTEVETPIRNEWGCRCNDHSD; epitope peptide) [compound 407]
Signal (peptides that bind to 23K21 and 8I10) (HuM2e antibody 23K12): 1200 | Signal (peptides that bind to Z3G1) [1]: 2537

651 (SLLTEVETPIRNEWGCRCHDSSD; epitope peptide) [compound 651]
Signal (peptides that bind to 23K21 and 8I10) (HuM2e antibody 23K12): 758 | Signal (peptides that bind to Z3G1) [1]: 2350

609 (SLLTEVETHIRNEWGCRCNDSSD; epitope peptide) [compound 609]
Signal (peptides that bind to 23K21 and 8I10) (HuM2e antibody 23K12): 816 | Signal (peptides that show specific binding to Z3G1) [1]: 2288

525 (SLLTEVGCSCLCEV; epitope peptide) [compound 525]
Signal (peptides that bind to 23K21 and 8I10) (HuM2e antibody 23K12): 996 | Signal (peptides that show specific binding to Z3G1) [1]: 1829

610 (SLLTEVETDIRNEWGCRCNDSSD; epitope peptide) [compound 610]
Signal (peptides that bind to 23K21 and 8I10) (HuM2e antibody 23K12): 813 | Signal (peptides that show specific binding to Z3G1) [1]: 2392

661 (SLLTEVETPIRQEWGCRCNDSSD; epitope peptide) [compound 661]
Signal (peptides that bind to 23K21 and 8I10) (HuM2e antibody 23K12): 748 | Signal (peptides that show specific binding to Z3G1) [1]: 2367

372 (CSLLTEVGMSCLTEV; epitope peptide) [compound 372]
Signal (peptides that bind to 23K21 and 8I10) (HuM2e antibody 23K12): 1466 | Signal (peptides that bind to Z3G1) [1]: 2554

284 (ASLLTEVGSLLTCV; epitope peptide) [compound 284]
Signal (peptides that bind to 23K21 and 8I10) (HuM2e antibody 23K12): 2443 | Signal (peptides that show specific binding to Z3G1) [1]: 2358

342 (SLLTEVETPIRNEWGCRCNSSSD; epitope peptide) [compound 342]
Signal (peptides that bind to 23K21 and 8I10) (HuM2e antibody 23K12): 1637 | Signal (peptides that bind to Z3G1) [1]: 2440

529 (SLLTEVETNIRNEWGCRCNDSSD; epitope peptide) [compound 529]
Signal (peptides that bind to 23K21 and 8I10) (HuM2e antibody 23K12): 978 | Signal (peptides that show specific binding to Z3G1) [1]: 2253
